# From ChEMBL document CHEMBL1152723, “Remarkable enhancement in the DNA-binding ability of C2-fluoro substituted pyrrolo[2,1-c][1,4]benzodiazepines and their anticancer potential” (2009)
# Tested on: DNA
# Assay: Binding affinity to calf thymus DNA assessed as change in melting temperature at a compound to DNA molar ratio of 1:5 at pH 7 by thermal denaturation assay
# Format: nucleic-acid assay
# Conditions: Bos taurus
row,ΔTm [°C],Structure (SMILES)
1,37,COc1cc2c(cc1OCCCCCN1CCN(CCCCCOc3cc4c(cc3OC)C(=O)N3CC(F)C[C@H]3C=N4)CC1)N=C[C@@H]1CC(F)CN1C2=O (stereo partly drawn)
2,18.9,COc1cc2c(cc1OCCCCCOc1cc3c(cc1OC)C(=O)N1CC(F)(F)C[C@H]1C=N3)N=C[C@@H]1CC(F)(F)CN1C2=O

row,Structure (SMILES),ΔTm [°C]
1,COc1cc2c(cc1OCCCOc1cc3c(cc1OC)C(=O)N1CCC[C@H]1C=N3)N=C[C@@H]1CCCN1C2=O,10.2
